Laboratory results: ChEMBL document CHEMBL1128924, “Some benzenesulfonamido-substituted valerophenones that are selective antagonists for the 5-HT2C receptor” (Bioorg Med Chem Lett, 1996)

How the values were obtained:
Assay type in all cases: cell-based
[1] = biological target: 5-hydroxytryptamine receptor 2B (Homo sapiens, UniProt P41595); test: Displacement of [3H]-5-5HT from human cloned 5-hydroxytryptamine 2B receptor expressed in CHO-K1 cells
[2] = biological target: T1, 5-hydroxytryptamine receptor 2C (Homo sapiens, UniProt P28335); test: Displacement of [3H]mesulergine from human cloned 5-hydroxytryptamine 2C receptor expressed in CHO-K1 cells
T1 sequence (P28335 whole entry): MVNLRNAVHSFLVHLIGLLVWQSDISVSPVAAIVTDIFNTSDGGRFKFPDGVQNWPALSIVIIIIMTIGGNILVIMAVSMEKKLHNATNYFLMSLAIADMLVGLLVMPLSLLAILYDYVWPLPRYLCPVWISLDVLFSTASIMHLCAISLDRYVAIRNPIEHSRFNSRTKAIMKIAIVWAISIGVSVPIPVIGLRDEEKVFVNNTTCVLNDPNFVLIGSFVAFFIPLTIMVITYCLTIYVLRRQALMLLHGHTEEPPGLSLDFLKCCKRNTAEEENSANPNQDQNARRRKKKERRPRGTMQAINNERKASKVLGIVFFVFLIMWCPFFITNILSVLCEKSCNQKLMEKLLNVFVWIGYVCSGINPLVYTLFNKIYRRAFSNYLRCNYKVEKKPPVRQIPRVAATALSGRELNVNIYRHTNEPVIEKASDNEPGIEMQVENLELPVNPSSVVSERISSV

[3] = biological target: T2, 5-hydroxytryptamine receptor 2A (Homo sapiens, UniProt P28223); test: Compound was evaluated for displacement of [3H]ketanserin from human cloned 5-hydroxytryptamine 2A receptor in transfected CHO-K1 cells
[4] = biological target: T2, 5-hydroxytryptamine receptor 2A; test: Displacement of [3H]-ketanserin from human cloned 5-hydroxytryptamine 2A receptor expressed in CHO-K1 cells.
[5] = biological target: 5-hydroxytryptamine receptor 2A (Rattus norvegicus, UniProt P14842); test: Compound was evaluated for displacement of [3H]ketanserin from cloned rat 5-hydroxytryptamine 2A receptor in transfected CHO-K1 cells.
[6] = biological target: T3, 5-hydroxytryptamine receptor 2C (Rattus norvegicus, UniProt P08909); test: Compound was evaluated for displacement of [3H]mesulergine from cloned rat 5-hydroxytryptamine 2C receptor in transfected CHO-K1 cells.
T3 sequence (P08909 whole entry): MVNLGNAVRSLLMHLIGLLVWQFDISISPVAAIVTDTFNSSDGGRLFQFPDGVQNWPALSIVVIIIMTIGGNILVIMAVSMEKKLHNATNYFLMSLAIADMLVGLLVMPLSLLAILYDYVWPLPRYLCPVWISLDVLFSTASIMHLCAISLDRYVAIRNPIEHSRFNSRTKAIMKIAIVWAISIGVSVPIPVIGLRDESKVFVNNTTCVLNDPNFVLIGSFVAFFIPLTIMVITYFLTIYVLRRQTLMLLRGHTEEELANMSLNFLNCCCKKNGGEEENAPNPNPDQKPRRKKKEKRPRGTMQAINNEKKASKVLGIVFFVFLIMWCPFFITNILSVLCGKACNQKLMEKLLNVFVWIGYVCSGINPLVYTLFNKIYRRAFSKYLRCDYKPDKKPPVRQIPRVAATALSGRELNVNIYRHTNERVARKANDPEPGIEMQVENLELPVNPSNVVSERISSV

5-hydroxytryptamine receptor 2B, sequence (P41595 whole entry): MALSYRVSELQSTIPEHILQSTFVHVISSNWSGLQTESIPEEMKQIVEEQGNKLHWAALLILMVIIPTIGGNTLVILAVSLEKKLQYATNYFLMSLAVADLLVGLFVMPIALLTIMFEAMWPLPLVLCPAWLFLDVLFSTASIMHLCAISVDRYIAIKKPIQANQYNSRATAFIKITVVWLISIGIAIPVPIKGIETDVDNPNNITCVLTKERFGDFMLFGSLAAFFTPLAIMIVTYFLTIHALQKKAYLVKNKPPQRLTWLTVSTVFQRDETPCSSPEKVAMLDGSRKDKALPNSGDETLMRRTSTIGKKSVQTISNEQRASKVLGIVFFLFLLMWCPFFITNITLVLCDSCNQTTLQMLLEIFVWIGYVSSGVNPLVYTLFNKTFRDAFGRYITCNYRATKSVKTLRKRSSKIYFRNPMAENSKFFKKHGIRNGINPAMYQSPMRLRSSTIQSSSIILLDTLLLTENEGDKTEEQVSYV
5-hydroxytryptamine receptor 2A (Rattus norvegicus, UniProt P14842), sequence (P14842 whole entry, looked up): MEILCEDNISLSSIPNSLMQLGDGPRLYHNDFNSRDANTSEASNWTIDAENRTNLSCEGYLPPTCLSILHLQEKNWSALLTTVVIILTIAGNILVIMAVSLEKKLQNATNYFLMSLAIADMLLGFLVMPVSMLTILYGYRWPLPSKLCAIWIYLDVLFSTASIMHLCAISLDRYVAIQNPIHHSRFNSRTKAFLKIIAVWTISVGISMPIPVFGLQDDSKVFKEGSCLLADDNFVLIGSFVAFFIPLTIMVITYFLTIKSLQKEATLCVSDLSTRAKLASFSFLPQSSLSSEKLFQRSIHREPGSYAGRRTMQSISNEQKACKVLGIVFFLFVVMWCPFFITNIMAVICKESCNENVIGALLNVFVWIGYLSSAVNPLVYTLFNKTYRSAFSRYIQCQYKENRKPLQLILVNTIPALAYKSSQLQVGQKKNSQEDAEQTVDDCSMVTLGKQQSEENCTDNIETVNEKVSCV
T2 sequence (P28223 whole entry): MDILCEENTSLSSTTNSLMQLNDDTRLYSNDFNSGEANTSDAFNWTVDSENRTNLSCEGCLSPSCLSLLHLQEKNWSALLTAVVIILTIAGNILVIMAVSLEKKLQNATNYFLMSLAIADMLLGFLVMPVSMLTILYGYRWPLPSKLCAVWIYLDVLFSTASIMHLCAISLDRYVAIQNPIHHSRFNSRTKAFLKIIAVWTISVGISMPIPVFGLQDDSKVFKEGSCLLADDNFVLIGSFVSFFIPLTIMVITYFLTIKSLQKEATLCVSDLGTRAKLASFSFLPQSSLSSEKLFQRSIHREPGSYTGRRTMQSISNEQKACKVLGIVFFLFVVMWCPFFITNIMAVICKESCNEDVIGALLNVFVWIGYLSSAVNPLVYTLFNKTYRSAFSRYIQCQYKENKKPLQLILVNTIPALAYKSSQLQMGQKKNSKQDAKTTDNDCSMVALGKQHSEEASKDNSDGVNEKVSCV

Compound | Ki [1] [nM] | Ki [2] [nM] | Ki [3] [nM] | Ki [4] [nM] | Ki [5] [nM] | Ki [6] [nM]
COc1ccc(OC)c(C(=O)CCCCN2CCC3(CC2)NC(=O)NC3=O)c1 | 126 | 3.16 | 20 | – | – | –
COc1cc(OC)c(C(=O)CCCCN2CCC3(CC2)NC(=O)NC3=O)cc1NS(=O)(=O)c1ccccc1Cl | 398 | 398 | – | > 10000 | – | –
COc1cc(OC)c(C(=O)CCCCN2CCC3(CC2)NC(=O)NC3=O)cc1NS(=O)(=O)c1cccc(C(F)(F)F)c1 | – | – | – | – | 794 | 100
COc1cc(OC)c(C(=O)CCCCN2CCC3(CC2)NC(=O)NC3=O)cc1NS(=O)(=O)c1ccc(F)cc1 | 126 | 10 | – | > 10000 | – | –
COc1cc(OC)c(-c2ccccc2)cc1C(=O)CCCCN1CCC2(CC1)NC(=O)NC2=O | 100 | 10 | 398 | – | – | –
COc1cc(OC)c(C(=O)CCCCN2CCC3(CC2)NC(=O)NC3=O)cc1NS(=O)(=O)c1cccc(Cl)c1 | 200 | 50.1 | – | 2000 | – | –
COc1ccc(NS(=O)(=O)c2ccc(Cl)cc2)cc1C(=O)CCCCN1CCC2(CC1)NC(=O)NC2=O | – | – | – | – | 7.94 | 2
COc1cc(OC)c(C(=O)CCCCN2CCC3(CC2)NC(=O)NC3=O)cc1NS(=O)(=O)c1ccccc1 | 631 | 31.6 | – | 3160 | – | –
COc1cc(OC)c(C(=O)CCCCN2CCC3(CC2)NC(=O)NC3=O)cc1NS(=O)(=O)c1ccc(C(C)=O)cc1 | 251 | 39.8 | – | > 10000 | – | –
COc1ccc(NS(=O)(=O)c2ccccc2)cc1C(=O)CCCCN1CCC2(CC1)NC(=O)NC2=O | – | – | – | – | 20 | 6.31
COc1ccc(Oc2ccccc2)cc1C(=O)CCCCN1CCC2(CC1)NC(=O)NC2=O | – | – | – | – | 7.94 | 3.16
COc1cc(OC)c(C(=O)CCCCN2CCC3(CC2)NC(=O)NC3=O)cc1NS(=O)(=O)c1ccc(Cl)cc1 | 79.4 | 5.01 | – | 794 | – | –
COc1cc(OC)c(C(=O)CCCCN2CCC3(CC2)NC(=O)NC3=O)cc1NS(=O)(=O)c1ccc(C)cc1 | 316 | 10 | – | 2510 | – | –
COc1cc(OC)c(C(=O)CCCCN2CCC3(CC2)NC(=O)NC3=O)cc1NS(=O)(=O)c1ccc(C#N)cc1 | 398 | 7.94 | – | 794 | – | –
COc1cc(OC)c(C(=O)CCCCN2CCC3(CC2)NC(=O)NC3=O)cc1NS(=O)(=O)c1ccc(S(N)(=O)=O)cc1 | 3160 | 79.4 | – | > 10000 | – | –
COc1ccc(Cl)cc1C(=O)CCCCN1CCC2(CC1)NC(=O)NC2=O | 50.1 | 3.98 | 12.6 | – | – | –
COc1cc(OC)c(C(=O)CCCCN2CCC3(CC2)NC(=O)NC3=O)cc1N | – | – | – | – | 126 | 39.8
COc1ccc(S(=O)(=O)Nc2cc(C(=O)CCCCN3CCC4(CC3)NC(=O)NC4=O)c(OC)cc2OC)cc1 | 1260 | 20 | – | 2000 | – | –
COc1cc(Cl)ccc1C(=O)CCCCN1CCC2(CC1)NC(=O)NC2=O | 200 | 6.31 | 126 | – | – | –
COc1ccccc1C(=O)CCCCN1CCC2(CC1)NC(=O)NC2=O | > 10000 | > 10000 | > 10000 | – | – | –
COc1cc(OC)c(C(=O)CCCCN2CCC3(CC2)NC(=O)NC3=O)cc1NS(=O)(=O)c1ccc(OC(F)(F)F)cc1 | 398 | 1.58 | – | 1000 | – | –
COc1cc(OC)c(C(=O)CCCCN2CCC3(CC2)NC(=O)NC3=O)cc1Cl | – | – | – | – | 5.01 | 0.631
COc1cc(Cl)c(Cl)cc1C(=O)CCCCN1CCC2(CC1)NC(=O)NC2=O | 6.31 | 0.251 | 6.31 | – | – | –
COc1cc(OC)c(C(=O)CCCCN2CCC3(CC2)NC(=O)NC3=O)cc1NS(=O)(=O)c1ccc(C(C)C)cc1 | 1260 | 1.58 | – | 1260 | – | –
COc1cc(OC)c(C(=O)CCCCN2CCC3(CC2)NC(=O)NC3=O)cc1NS(=O)(=O)c1ccc(NC(C)=O)cc1 | 316 | 39.8 | – | > 10000 | – | –
COc1ccc(-c2ccccc2)cc1C(=O)CCCCN1CCC2(CC1)NC(=O)NC2=O | 10 | 0.2 | 1 | – | – | –
CN1C[C@@H](NS(=O)(=O)N(C)C)C[C@@H]2c3cccc4c3c(cn4C)C[C@H]21 [MESULERGINE] | 2 | – | – | 20 | – | –
COc1cc(OC)c(C(=O)CCCCN2CCC3(CC2)NC(=O)NC3=O)cc1NS(=O)(=O)c1ccc(C(F)(F)F)cc1 [RS-102,221] | 316 | 2 | – | 631 | – | –
O=C(CCCN1CCC2(CC1)C(=O)NCN2c1ccccc1)c1ccc(F)cc1 [SPIPERONE] | 1260 | 631 | – | – | – | –
